Assays:
[1] = test system: Mycobacterium tuberculosis; assay: Antimycobacterial activity against Mycobacterium tuberculosis H37Rv CNCTC My 331/88 after 21 days by micromethod; format: functional; settings: H37Rv CNCTC My 331/88, 504 h
Staphylococcus aureus [2] = assay: Antibacterial activity against Staphylococcus aureus ATCC 6538 after 24 hrs by broth microdilution method; format: functional; settings: ATCC 6538, 24 h
Pseudomonas aeruginosa [3] = assay: Antibacterial activity against Pseudomonas aeruginosa ATCC 9027 after 24 hrs by broth microdilution method; format: functional; settings: ATCC 9027, 24 h
Candida tropicalis [4] = assay: Antifungal activity against Candida tropicalis 156 after 48 hrs by broth microdilution method; format: functional; settings: Candida tropicalis, 156, 48 h
Pichia kudriavzevii [5] = assay: Antifungal activity against Candida krusei E28 after 48 hrs by broth microdilution method; format: functional; settings: E28, 48 h
Trichosporon asahii [6] = assay: Antifungal activity against Trichosporon asahii 1188 after 48 hrs by broth microdilution method; format: functional; settings: Trichosporon asahii, 1188, 48 h
CHO-K1 = assay: Cytotoxicity against CHOK1 cells after 24 hrs by MTT assay; format: cell-based; settings: Cricetulus griseus, CHO-K1, 24 h
Mycobacterium kansasii [7] = assay: Antimycobacterial activity against Mycobacterium kansasii isolate 6509/96 after 14 days by micromethod; format: functional; settings: isolate 6509/96, 336 h
Enterococcus sp. [8] = assay: Antibacterial activity against Enterococcus sp. HK14365/08 after 24 hrs by broth microdilution method; format: functional; settings: HK14365/08, 24 h
Nakaseomyces glabratus [9] = assay: Antifungal activity against Candida glabrata 20/I after 48 hrs by broth microdilution method; format: functional
Staphylococcus aureus [10] = assay: Antibacterial activity against methicillin-resistant Staphylococcus aureus HK5996/08 after 48 hrs by broth microdilution method; format: functional; settings: HK5996/08, 48 h
Mycobacterium avium [11] = assay: Antimycobacterial activity against Mycobacterium avium CNCTC My 330/80 after 21 days by micromethod; format: functional; settings: CNCTC My 330/80, 504 h
[12] = test system: Staphylococcus epidermidis; assay: Antibacterial activity against Staphylococcus epidermidis HK6966/08 after 24 hrs by broth microdilution method; format: functional; settings: HK6966/08, 24 h
Escherichia coli [13] = assay: Antibacterial activity against Escherichia coli ATCC 8739 after 24 hrs by broth microdilution method; format: functional; settings: ATCC 8739, 24 h
Candida albicans [14] = assay: Antifungal activity against Candida albicans ATCC 44859 after 24 hrs by broth microdilution method; format: functional; settings: ATCC 44859, 24 h
Staphylococcus aureus [15] = assay: Antibacterial activity against Staphylococcus aureus ATCC 6538 after 48 hrs by broth microdilution method; format: functional; settings: ATCC 6538, 48 h
Trichosporon asahii [16] = assay: Antifungal activity against Trichosporon asahii 1188 after 24 hrs by broth microdilution method; format: functional; settings: Trichosporon asahii, 1188, 24 h
Klebsiella pneumoniae [17] = assay: Antibacterial activity against extended spectrum beta-lactamase producing Klebsiella pneumoniae HK14368/08 after 48 hrs by broth microdilution method; format: functional; settings: HK14368/08, 48 h
[18] = test system: Staphylococcus epidermidis; assay: Antibacterial activity against Staphylococcus epidermidis HK6966/08 after 48 hrs by broth microdilution method; format: functional; settings: HK6966/08, 48 h
Staphylococcus aureus [19] = assay: Antibacterial activity against methicillin-resistant Staphylococcus aureus HK5996/08 after 24 hrs by broth microdilution method; format: functional; settings: HK5996/08, 24 h
[20] = test system: Trichophyton mentagrophytes; assay: Antifungal activity against Trichophyton mentagrophytes 445 after 72 hrs by broth microdilution method; format: functional; settings: Trichophyton mentagrophytes, 445, 72 h
[21] = test system: Mycobacterium tuberculosis; assay: Antimycobacterial activity against Mycobacterium tuberculosis H37Rv CNCTC My 331/88 after 14 days by micromethod; format: functional; settings: H37Rv CNCTC My 331/88, 336 h
Mycobacterium avium [22] = assay: Antimycobacterial activity against Mycobacterium avium CNCTC My 330/80 after 14 days by micromethod; format: functional; settings: CNCTC My 330/80, 336 h
Aspergillus fumigatus [23] = assay: Antifungal activity against Aspergillus fumigatus 231 after 48 hrs by broth microdilution method; format: functional; settings: Aspergillus fumigatus, 231, 48 h
Escherichia coli [24] = assay: Antibacterial activity against Escherichia coli ATCC 8739 after 48 hrs by broth microdilution method; format: functional; settings: ATCC 8739, 48 h
Klebsiella pneumoniae [25] = assay: Antibacterial activity against Klebsiella pneumoniae HK11750/08 after 24 hrs by broth microdilution method; format: functional; settings: HK11750/08, 24 h
Klebsiella pneumoniae [26] = assay: Antibacterial activity against extended spectrum beta-lactamase producing Klebsiella pneumoniae HK14368/08 after 24 hrs by broth microdilution method; format: functional; settings: HK14368/08, 24 h
Mycobacterium kansasii [27] = assay: Antimycobacterial activity against Mycobacterium kansasii CNCTC My 235/80 after 21 days by micromethod; format: functional; settings: CNCTC My 235/80, 504 h
Lichtheimia corymbifera [28] = assay: Antifungal activity against Absidia corymbifera 272 after 24 hrs by broth microdilution method; format: functional; settings: Lichtheimia corymbifera, 272, 24 h
Pichia kudriavzevii [29] = assay: Antifungal activity against Candida krusei E28 after 24 hrs by broth microdilution method; format: functional; settings: E28, 24 h
Pseudomonas aeruginosa [30] = assay: Antibacterial activity against Pseudomonas aeruginosa ATCC 9027 after 48 hrs by broth microdilution method; format: functional; settings: ATCC 9027, 48 h
Candida tropicalis [31] = assay: Antifungal activity against Candida tropicalis 156 after 24 hrs by broth microdilution method; format: functional; settings: Candida tropicalis, 156, 24 h
Enterococcus sp. [32] = assay: Antibacterial activity against Enterococcus sp. HK14365/08 after 48 hrs by broth microdilution method; format: functional; settings: HK14365/08, 48 h
Lichtheimia corymbifera [33] = assay: Antifungal activity against Absidia corymbifera 272 after 48 hrs by broth microdilution method; format: functional; settings: Lichtheimia corymbifera, 272, 48 h
Candida albicans [34] = assay: Antifungal activity against Candida albicans ATCC 44859 after 48 hrs by broth microdilution method; format: functional; settings: ATCC 44859, 48 h
Mycobacterium kansasii [35] = assay: Antimycobacterial activity against Mycobacterium kansasii CNCTC My 235/80 after 7 days by micromethod; format: functional; settings: CNCTC My 235/80, 168 h
Mycobacterium kansasii [36] = assay: Antimycobacterial activity against Mycobacterium kansasii isolate 6509/96 after 7 days by micromethod; format: functional; settings: isolate 6509/96, 168 h
Klebsiella pneumoniae [37] = assay: Antibacterial activity against Klebsiella pneumoniae HK11750/08 after 48 hrs by broth microdilution method; format: functional; settings: HK11750/08, 48 h
Aspergillus fumigatus [38] = assay: Antifungal activity against Aspergillus fumigatus 231 after 24 hrs by broth microdilution method; format: functional; settings: Aspergillus fumigatus, 231, 24 h
Mycobacterium kansasii [39] = assay: Antimycobacterial activity against Mycobacterium kansasii isolate 6509/96 after 21 days by micromethod; format: functional; settings: isolate 6509/96, 504 h
Nakaseomyces glabratus [40] = assay: Antifungal activity against Candida glabrata 20/I after 24 hrs by broth microdilution method; format: functional
Mycobacterium kansasii [41] = assay: Antimycobacterial activity against Mycobacterium kansasii CNCTC My 235/80 after 14 days by micromethod; format: functional; settings: CNCTC My 235/80, 336 h
[42] = test system: Trichophyton mentagrophytes; assay: Antifungal activity against Trichophyton mentagrophytes 445 after 120 hrs by broth microdilution method; format: functional; settings: Trichophyton mentagrophytes, 445, 120 h

O=[N+]([O-])c1cc(-c2nnn(Cc3cccc(Br)c3)n2)cc([N+](=O)[O-])c1
0.25 µM: MIC99 [1] | MIC99 [21]
29 µM: IC50 (CHO-K1)
4 µM: MIC99 (Mycobacterium avium [22])
0.5 µM: MIC99 (Mycobacterium kansasii [36])
250 µM: MIC (Staphylococcus aureus [2]) | MIC [12] | MIC (Staphylococcus aureus [15]) | MIC [18]
8 µM: MIC99 (Mycobacterium avium [11])
2 µM: MIC99 (Mycobacterium kansasii [27]) | MIC99 (Mycobacterium kansasii [39]) | MIC99 (Mycobacterium kansasii [41])
1 µM: MIC99 (Mycobacterium kansasii [7]) | MIC99 (Mycobacterium kansasii [35])
> 500 µM: MIC (Pseudomonas aeruginosa [3]) | MIC (Candida tropicalis [4]) | MIC (Pichia kudriavzevii [5]) | MIC (Trichosporon asahii [6]) | MIC (Enterococcus sp. [8]) | MIC (Nakaseomyces glabratus [9]) | MIC (Staphylococcus aureus [10]) | MIC (Escherichia coli [13]) | MIC (Candida albicans [14]) | MIC (Trichosporon asahii [16]) | MIC (Klebsiella pneumoniae [17]) | MIC (Staphylococcus aureus [19]) | MIC [20] | MIC (Aspergillus fumigatus [23]) | MIC (Escherichia coli [24]) | MIC (Klebsiella pneumoniae [25]) | MIC (Klebsiella pneumoniae [26]) | MIC (Lichtheimia corymbifera [28]) | MIC (Pichia kudriavzevii [29]) | MIC (Pseudomonas aeruginosa [30]) | MIC (Candida tropicalis [31]) | MIC (Enterococcus sp. [32]) | MIC (Lichtheimia corymbifera [33]) | MIC (Candida albicans [34]) | MIC (Klebsiella pneumoniae [37]) | MIC (Aspergillus fumigatus [38]) | MIC (Nakaseomyces glabratus [40]) | MIC [42]

O=[N+]([O-])c1cc(-c2nnn(CSc3nnnn3-c3ccc(Cl)c(Cl)c3)n2)cc([N+](=O)[O-])c1
4 µM: MIC99 (Mycobacterium avium [22])
0.125 µM: MIC99 (Mycobacterium kansasii [41])
8 µM: MIC99 (Mycobacterium avium [11])
0.03 µM: MIC99 [1] | MIC99 [21] | MIC99 (Mycobacterium kansasii [36])
0.06 µM: MIC99 (Mycobacterium kansasii [7]) | MIC99 (Mycobacterium kansasii [35]) | MIC99 (Mycobacterium kansasii [39])
8.7 µM: IC50 (CHO-K1)
> 125 µM: MIC (Staphylococcus aureus [2]) | MIC (Pseudomonas aeruginosa [3]) | MIC (Candida tropicalis [4]) | MIC (Pichia kudriavzevii [5]) | MIC (Trichosporon asahii [6]) | MIC (Enterococcus sp. [8]) | MIC (Nakaseomyces glabratus [9]) | MIC (Staphylococcus aureus [10]) | MIC [12] | MIC (Escherichia coli [13]) | MIC (Candida albicans [14]) | MIC (Staphylococcus aureus [15]) | MIC (Trichosporon asahii [16]) | MIC (Klebsiella pneumoniae [17]) | MIC [18] | MIC (Staphylococcus aureus [19]) | MIC [20] | MIC (Aspergillus fumigatus [23]) | MIC (Escherichia coli [24]) | MIC (Klebsiella pneumoniae [25]) | MIC (Klebsiella pneumoniae [26]) | MIC (Lichtheimia corymbifera [28]) | MIC (Pichia kudriavzevii [29]) | MIC (Pseudomonas aeruginosa [30]) | MIC (Candida tropicalis [31]) | MIC (Enterococcus sp. [32]) | MIC (Lichtheimia corymbifera [33]) | MIC (Candida albicans [34]) | MIC (Klebsiella pneumoniae [37]) | MIC (Aspergillus fumigatus [38]) | MIC (Nakaseomyces glabratus [40]) | MIC [42]
125 µM: MIC99 (Mycobacterium kansasii [27])

COc1cccc(-n2nnnc2SCn2nnc(-c3cc([N+](=O)[O-])cc([N+](=O)[O-])c3)n2)c1
0.03 µM: MIC99 [1] | MIC99 [21]
16 µM: MIC99 (Mycobacterium avium [11])
2 µM: MIC99 (Mycobacterium kansasii [27])
0.5 µM: MIC99 (Mycobacterium kansasii [36])
8 µM: MIC99 (Mycobacterium avium [22])
135 µM: IC50 (CHO-K1)
1 µM: MIC99 (Mycobacterium kansasii [7]) | MIC99 (Mycobacterium kansasii [35]) | MIC99 (Mycobacterium kansasii [39]) | MIC99 (Mycobacterium kansasii [41])
> 125 µM: MIC (Staphylococcus aureus [2]) | MIC (Pseudomonas aeruginosa [3]) | MIC (Enterococcus sp. [8]) | MIC (Staphylococcus aureus [10]) | MIC [12] | MIC (Escherichia coli [13]) | MIC (Staphylococcus aureus [15]) | MIC (Klebsiella pneumoniae [17]) | MIC [18] | MIC (Staphylococcus aureus [19]) | MIC (Escherichia coli [24]) | MIC (Klebsiella pneumoniae [25]) | MIC (Klebsiella pneumoniae [26]) | MIC (Pseudomonas aeruginosa [30]) | MIC (Enterococcus sp. [32]) | MIC (Klebsiella pneumoniae [37])
> 500 µM: MIC (Candida tropicalis [4]) | MIC (Pichia kudriavzevii [5]) | MIC (Trichosporon asahii [6]) | MIC (Nakaseomyces glabratus [9]) | MIC (Candida albicans [14]) | MIC (Trichosporon asahii [16]) | MIC [20] | MIC (Aspergillus fumigatus [23]) | MIC (Lichtheimia corymbifera [28]) | MIC (Pichia kudriavzevii [29]) | MIC (Candida tropicalis [31]) | MIC (Lichtheimia corymbifera [33]) | MIC (Candida albicans [34]) | MIC (Aspergillus fumigatus [38]) | MIC (Nakaseomyces glabratus [40]) | MIC [42]

From ChEMBL document CHEMBL4011590, “Structure-activity relationship studies on 3,5-dinitrophenyl tetrazoles as antitubercular agents” (Eur J Med Chem, 2017)
